{
  "source": "patent US12686873B2",
  "about": "“Plants having increased tolerance to herbicides” (priority 2012, dated 2026)",
  "key": {"[1]": {"system": "Chlamydomonas reinhardtii strains", "test": "Selection and dose-response of Chlamydomonas reinhardtii strains"}, "[2]": {"system": "transgenic T1 Arabidopsis plants", "test": "Transgenic T1 Arabidopsis greenhouse tolerance study (injury rating)", "details": "SEQ_ID 2 & 4, L397D, F420V"}, "Soy": {"system": "Soy", "test": "Tolerance rates for soybean (injury score 0-9)", "details": "Soy"}},
  "note": "Several values for one entry are separate records, joined by “and”; a condition that tells them apart may be missing. Identical values can stand only once.",
  "data": [
    {"smiles": "C#CCN1C(=O)C(F)(F)Oc2cc(F)c(-n3c(=O)n(C)c(=S)n(C)c3=O)cc21", "values": [
      {"measurement": "growth of mutagenized cells plated on solid medium containing the herbicide", "setting": "[1]; 1×10^−7 M in solid medium, FIG. 2B", "result": "susceptible cells do not grow"},
      {"measurement": "IC50 of mutagenized cells (strain 17) compared to Wild-type cells", "setting": "[1]; dose-response curve, FIG. 3B versus FIG. 3A", "result": "much lower IC50"},
      {"measurement": "Injury Rating 0-100% (0 = no injury, 100 = total control)", "setting": "[2]; 75 g/Ha + 1% MSO, 7 DAT, Line 1", "result": 98, "unit": "%"},
      {"measurement": "Injury Rating 0-100% (0 = no injury, 100 = total control)", "setting": "[2]; 75 g/Ha + 1% MSO, 7 DAT, Line 2", "result": 100, "unit": "%"},
      {"measurement": "Injury Rating 0-100% (0 = no injury, 100 = total control)", "setting": "[2]; 75 g/Ha + 1% MSO, 7 DAT, Line 3", "result": 80, "unit": "%"},
      {"measurement": "Injury Rating 0-100% (0 = no injury, 100 = total control)", "setting": "[2]; 75 g/Ha + 1% MSO, 19 DAT, Line 1", "result": 95, "unit": "%"},
      {"measurement": "Injury Rating 0-100% (0 = no injury, 100 = total control)", "setting": "[2]; 75 g/Ha + 1% MSO, 19 DAT, Line 2", "result": 100, "unit": "%"},
      {"measurement": "Injury Rating 0-100% (0 = no injury, 100 = total control)", "setting": "[2]; 75 g/Ha + 1% MSO, 19 DAT, Line 3", "result": 95, "unit": "%"},
      {"measurement": "Injury Rating 0-100% (0 = no injury, 100 = total control)", "setting": "[2]; 150 g/Ha + 1% MSO, 7 DAT, Line 1", "result": 30, "unit": "%"},
      {"measurement": "Injury Rating 0-100% (0 = no injury, 100 = total control)", "setting": "[2]; 150 g/Ha + 1% MSO, 7 DAT, Line 2", "result": 98, "unit": "%"},
      {"measurement": "Injury Rating 0-100% (0 = no injury, 100 = total control)", "setting": "[2]; 150 g/Ha + 1% MSO, 7 DAT, Line 3", "result": 98, "unit": "%"},
      {"measurement": "Injury Rating 0-100% (0 = no injury, 100 = total control)", "setting": "[2]; 150 g/Ha + 1% MSO, 19 DAT, Line 1", "result": 65, "unit": "%"},
      {"measurement": "Injury Rating 0-100% (0 = no injury, 100 = total control)", "setting": "[2]; 150 g/Ha + 1% MSO, 19 DAT, Line 2", "result": 100, "unit": "%"},
      {"measurement": "Injury Rating 0-100% (0 = no injury, 100 = total control)", "setting": "[2]; 150 g/Ha + 1% MSO, 19 DAT, Line 3", "result": 100, "unit": "%"},
      {"measurement": "Injury Rating 0-100% (0 = no injury, 100 = total control)", "setting": "[2]; 300 g/Ha + 1% MSO, 7 DAT, Line 1", "result": 100, "unit": "%"},
      {"measurement": "Injury Rating 0-100% (0 = no injury, 100 = total control)", "setting": "[2]; 300 g/Ha + 1% MSO, 7 DAT, Line 2", "result": 30, "unit": "%"},
      {"measurement": "Injury Rating 0-100% (0 = no injury, 100 = total control)", "setting": "[2]; 300 g/Ha + 1% MSO, 7 DAT, Line 3", "result": 35, "unit": "%"},
      {"measurement": "Injury Rating 0-100% (0 = no injury, 100 = total control)", "setting": "[2]; 300 g/Ha + 1% MSO, 19 DAT, Line 1", "result": 98, "unit": "%"},
      {"measurement": "Injury Rating 0-100% (0 = no injury, 100 = total control)", "setting": "[2]; 300 g/Ha + 1% MSO, 19 DAT, Line 2", "result": 60, "unit": "%"},
      {"measurement": "Injury Rating 0-100% (0 = no injury, 100 = total control)", "setting": "[2]; 300 g/Ha + 1% MSO, 19 DAT, Line 3", "result": 80, "unit": "%"},
      {"measurement": "injury score", "setting": "Soy; 1,5-dimethyl-6-thioxo-3-(...)-1,3,5-triazinane-2,4-dione 12.5 g ai/ha, amino acid substitution F420L, SEQ ID NO 2", "result": "2 and 1"},
      {"measurement": "injury score", "setting": "Soy; 1,5-dimethyl-6-thioxo-3-(...)-1,3,5-triazinane-2,4-dione 12.5 g ai/ha, amino acid substitution L369D, F392V, SEQ ID NO 40", "result": "8 and 5 and 7 and 6 and 4"},
      {"measurement": "injury score", "setting": "Soy; 1,5-dimethyl-6-thioxo-3-(...)-1,3,5-triazinane-2,4-dione 12.5 g ai/ha, amino acid substitution L397D, F420V, SEQ ID NO 2", "result": 2},
      {"measurement": "injury score", "setting": "Soy; 1,5-dimethyl-6-thioxo-3-(...)-1,3,5-triazinane-2,4-dione 12.5 g ai/ha, amino acid substitution L397E, SEQ ID NO 2", "result": "5 and 7 and 6 and 4 and 8"},
      {"measurement": "injury score", "setting": "Soy; 1,5-dimethyl-6-thioxo-3-(...)-1,3,5-triazinane-2,4-dione 12.5 g ai/ha, amino acid substitution L397Q, SEQ ID NO 2", "result": 7},
      {"measurement": "injury score", "setting": "Soy; 1,5-dimethyl-6-thioxo-3-(...)-1,3,5-triazinane-2,4-dione 12.5 g ai/ha, amino acid substitution none, SEQ ID NO 2", "result": "3 and 7 and 6 and 5"},
      {"measurement": "injury score", "setting": "Soy; 1,5-dimethyl-6-thioxo-3-(...)-1,3,5-triazinane-2,4-dione 12.5 g ai/ha, amino acid substitution none, SEQ ID NO 40", "result": "8 and 6 and 7 and 9"},
      {"measurement": "injury score", "setting": "Soy; 1,5-dimethyl-6-thioxo-3-(...)-1,3,5-triazinane-2,4-dione 25 g ai/ha, amino acid substitution F420L, SEQ ID NO 2", "result": "9 and 1 and 3 and 4 and 5"},
      {"measurement": "injury score", "setting": "Soy; 1,5-dimethyl-6-thioxo-3-(...)-1,3,5-triazinane-2,4-dione 25 g ai/ha, amino acid substitution F420M, SEQ ID NO 2", "result": "4 and 1 and 5 and 8"},
      {"measurement": "injury score", "setting": "Soy; 1,5-dimethyl-6-thioxo-3-(...)-1,3,5-triazinane-2,4-dione 25 g ai/ha, amino acid substitution L369D, F392V, SEQ ID NO 40", "result": "9 and 8 and 6 and 7 and 4"},
      {"measurement": "injury score", "setting": "Soy; 1,5-dimethyl-6-thioxo-3-(...)-1,3,5-triazinane-2,4-dione 25 g ai/ha, amino acid substitution L397D, F420V, SEQ ID NO 2", "result": 5},
      {"measurement": "injury score", "setting": "Soy; 1,5-dimethyl-6-thioxo-3-(...)-1,3,5-triazinane-2,4-dione 25 g ai/ha, amino acid substitution L397D, SEQ ID NO 2", "result": "8 and 4 and 5"},
      {"measurement": "injury score", "setting": "Soy; 1,5-dimethyl-6-thioxo-3-(...)-1,3,5-triazinane-2,4-dione 25 g ai/ha, amino acid substitution L397E, F420M, SEQ ID NO 2", "result": "2 and 1 and 0"},
      {"measurement": "injury score", "setting": "Soy; 1,5-dimethyl-6-thioxo-3-(...)-1,3,5-triazinane-2,4-dione 25 g ai/ha, amino acid substitution L397E, SEQ ID NO 2", "result": "5 and 8 and 6 and 7"},
      {"measurement": "injury score", "setting": "Soy; 1,5-dimethyl-6-thioxo-3-(...)-1,3,5-triazinane-2,4-dione 25 g ai/ha, amino acid substitution L397Q, F420M, SEQ ID NO 2", "result": "3 and 7 and 2 and 0 and 6"},
      {"measurement": "injury score", "setting": "Soy; 1,5-dimethyl-6-thioxo-3-(...)-1,3,5-triazinane-2,4-dione 25 g ai/ha, amino acid substitution L397Q, F420V, SEQ ID NO 2", "result": "4 and 6"},
      {"measurement": "injury score", "setting": "Soy; 1,5-dimethyl-6-thioxo-3-(...)-1,3,5-triazinane-2,4-dione 25 g ai/ha, amino acid substitution L397Q, SEQ ID NO 2", "result": 9},
      {"measurement": "injury score", "setting": "Soy; 1,5-dimethyl-6-thioxo-3-(...)-1,3,5-triazinane-2,4-dione 25 g ai/ha, amino acid substitution none, SEQ ID NO 2", "result": "5 and 7 and 6 and 8"},
      {"measurement": "injury score", "setting": "Soy; 1,5-dimethyl-6-thioxo-3-(...)-1,3,5-triazinane-2,4-dione 25 g ai/ha, amino acid substitution none, SEQ ID NO 40", "result": "9 and 6 and 7 and 8"},
      {"measurement": "injury score", "setting": "Soy; 1,5-dimethyl-6-thioxo-3-(...)-1,3,5-triazinane-2,4-dione 50 g ai/ha, amino acid substitution F420L, SEQ ID NO 2", "result": 6},
      {"measurement": "injury score", "setting": "Soy; 1,5-dimethyl-6-thioxo-3-(...)-1,3,5-triazinane-2,4-dione 50 g ai/ha, amino acid substitution F420M, SEQ ID NO 2", "result": "3 and 4 and 2 and 5 and 9"},
      {"measurement": "injury score", "setting": "Soy; 1,5-dimethyl-6-thioxo-3-(...)-1,3,5-triazinane-2,4-dione 50 g ai/ha, amino acid substitution L369D, F392V, SEQ ID NO 40", "result": "8 and 7"},
      {"measurement": "injury score", "setting": "Soy; 1,5-dimethyl-6-thioxo-3-(...)-1,3,5-triazinane-2,4-dione 50 g ai/ha, amino acid substitution L397D, F420V, SEQ ID NO 2", "result": 4},
      {"measurement": "injury score", "setting": "Soy; 1,5-dimethyl-6-thioxo-3-(...)-1,3,5-triazinane-2,4-dione 50 g ai/ha, amino acid substitution L397D, SEQ ID NO 2", "result": "9 and 5 and 8 and 4 and 6"},
      {"measurement": "injury score", "setting": "Soy; 1,5-dimethyl-6-thioxo-3-(...)-1,3,5-triazinane-2,4-dione 50 g ai/ha, amino acid substitution L397E, F420M, SEQ ID NO 2", "result": "2 and 1"},
      {"measurement": "injury score", "setting": "Soy; 1,5-dimethyl-6-thioxo-3-(...)-1,3,5-triazinane-2,4-dione 50 g ai/ha, amino acid substitution L397Q, F420M, SEQ ID NO 2", "result": "2 and 7 and 3 and 4 and 6 and 5 and 1"},
      {"measurement": "injury score", "setting": "Soy; 1,5-dimethyl-6-thioxo-3-(...)-1,3,5-triazinane-2,4-dione 50 g ai/ha, amino acid substitution L397Q, F420V, SEQ ID NO 2", "result": "5 and 7"},
      {"measurement": "injury score", "setting": "Soy; 1,5-dimethyl-6-thioxo-3-(...)-1,3,5-triazinane-2,4-dione 75 g ai/ha, amino acid substitution L397E, F420M, SEQ ID NO 2", "result": "2 and 3 and 1"},
      {"measurement": "injury score", "setting": "Soy; 1,5-dimethyl-6-thioxo-3-(...)-1,3,5-triazinane-2,4-dione 75 g ai/ha, amino acid substitution L397Q, F420M, SEQ ID NO 2", "result": "3 and 7 and 8 and 4 and 5 and 6 and 2"},
      {"measurement": "injury score", "setting": "Soy; 1,5-dimethyl-6-thioxo-3-(...)-1,3,5-triazinane-2,4-dione 75 g ai/ha, amino acid substitution L397Q, F420V, SEQ ID NO 2", "result": "5 and 7"}
    ]}
  ]
}
